Results taken from patent US20240254162A1, “CYCLOTHEONELLAZOLEA, AND SYNTHETIC METHOD THEREFOR, AND APPLICATION METHOD THEREOF” (The Second People's Hospital of Shenzhen(Shenzhen Institute …, priority 2022, published 2024).
Numbered stars: 1 amine (or outer) side, 2 acyl side, 3 side chain; on linkers, the order of the positions; unused ones are H or OH. Bridge positions count the residues as written; N and C are the ends. Square brackets hold non-standard residues; d marks the D form. Peptide text beside a SMILES is read from it. * marks the point of attachment. X2 = O=C(/C=C/c1csc([C@H](Cc2ccc(O)cc2)N[*:1])n1)[*:2]; X1 = CC[C@H](C)[C@H](N[*:1])C(=O)C(=O)[*:2]; Benzoyl(4-OH) = O=C(c1ccc(O)cc1)*; Cya = N[C@@H](CS(=O)(=O)O)C(=O)O; Nva = CCC[C@H](N)C(=O)O; Dap = NC[C@H](N)C(=O)O

Assays:
Format in all cases: biochemical
neutrophil elastase (NE) = target: T1, neutrophil elastase (NE) (Homo sapiens, UniProt P08246); assay: Inhibition effect of CA on NE protease enzyme activity (Abcam NE protease detection kit ab118971, fluorescence); conditions: incubated at 37° C. for 5 min; Ex/Em=400/505 nm; FIG. 3
T1 construct: purchased Abcam ab118971
T1 sequence (P08246 30-267): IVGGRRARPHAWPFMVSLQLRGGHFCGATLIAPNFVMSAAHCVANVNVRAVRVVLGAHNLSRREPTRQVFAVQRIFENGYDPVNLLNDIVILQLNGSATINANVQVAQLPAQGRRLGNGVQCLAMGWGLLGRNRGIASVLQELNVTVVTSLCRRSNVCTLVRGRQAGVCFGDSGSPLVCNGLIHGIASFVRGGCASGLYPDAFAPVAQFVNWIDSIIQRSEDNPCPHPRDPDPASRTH
Method: • 1. Experimental materials include a NE protease detection kit (ab118971) of an Abcam company and CA. • 2. Experimental methods are as follows. In a black 96-well plate, a blank well group, a negative control well group and a sample well group are set, and a detection system is 100 μL. The blank well group is added with 75 μL of buffer, the negative control well group is added with 50 μL of NE protease and 25 μL of buffer, the sample well group is added with 50 μL of NE protease and 25 μL of CA solution (respectively with concentrations of 0.00001 μM, 0.0001 μM, 0.001 μM, 0.003 μM, 0.01 μM and 0.1 μM), and the three groups are incubated at a temperature of 37° C. for 5 min. Each well is added with 25 μL of substrate, after mixing evenly, fluorescence value of each well is immediately detected at Ex/Em=400/505 nm, every 20 seconds, and a dynamic process within a range of 0-40 min is observed. Two different time points (T1 and T2) are selected within a linear range of the dynamic process to obtain fluorescence values (RFUT1 and RFUT2) corresponding to the time points, a slope of the fluorescence values is calculated, and the slope can be regarded as an enzyme activity of each well. A formula of the slope is slope=(RFUT2−RFUT1)/(T2−T1). […] A half inhibitory concentration (IC50) is calculated through the Origin 2021 software. • 3.

[1] = target: T2, transmembrane serine protease 2 (TMPRSS2) (Homo sapiens, UniProt O15393); assay: Inhibition effect of CA on TMPRSS2 enzyme activity (BPS Bioscience TMPRSS2 detection kit 78083, fluorescence); conditions: incubated at room temperature for 30 min; Ex/Em=383/455 nm; FIG. 1
T2 construct: purchased BPS Bioscience 78083
Method: • 1. Experimental materials include a TMPRSS2 detection kit (78083) of a BPS Bioscience company and CA. • 2. Experimental methods are as follows. In a black 96-well plate, a blank well group, a negative control well group and a sample well group are set, and a detection system is 50 microliters (μL). The blank well group is added with 40 μL of buffer, the negative control well group is added with 30 μL of TMPRSS2 protease and 10 μL of buffer, the sample well group is added with 30 μL of TMPRSS2 protease and 10 μL of CA solution (respectively with concentrations of 0.1 micromole per liter abbreviated as μM, 1 μM, 10 μM, 30 μM, 100 μM, 150 μM, and 200 μM), and the three groups are incubated at the room temperature for 30 min. Each well is added with 10 μL of substrate, after mixing evenly, fluorescence value of each well is immediately detected at excitation/emission (Ex/Em)=383/455 nanometers (nm), every 30 seconds, and a dynamic process within a range of 0-40 min is observed. Two different time points (T1 and T2) are selected within a linear range of the dynamic process to obtain fluorescence values (RFUT1 and RFUT2) corresponding to the time points, a slope of the fluorescence values is calculated, and the slope can be regarded as an enzyme activity of each well. […] A half inhibitory concentration (IC50) is calculated through an Origin 2021 software. • 3.

[2] = target: T3, mainprotease (Mpro) of SARS-COV-2 virus (Severe acute respiratory syndrome coronavirus 2, UniProt P0DTD1); assay: Inhibition effect of CA on Mpro enzyme activity (BPS Bioscience Mpro detection kit 78042-2, fluorescence); conditions: incubated at room temperature for 30 min; Ex/Em=360/460 nm; FIG. 2
T3 construct: Mainprotease (Mpro) of SARS-COV-2 Virus; purchased BPS Bioscience 78042-2

T2 sequence (O15393 whole entry): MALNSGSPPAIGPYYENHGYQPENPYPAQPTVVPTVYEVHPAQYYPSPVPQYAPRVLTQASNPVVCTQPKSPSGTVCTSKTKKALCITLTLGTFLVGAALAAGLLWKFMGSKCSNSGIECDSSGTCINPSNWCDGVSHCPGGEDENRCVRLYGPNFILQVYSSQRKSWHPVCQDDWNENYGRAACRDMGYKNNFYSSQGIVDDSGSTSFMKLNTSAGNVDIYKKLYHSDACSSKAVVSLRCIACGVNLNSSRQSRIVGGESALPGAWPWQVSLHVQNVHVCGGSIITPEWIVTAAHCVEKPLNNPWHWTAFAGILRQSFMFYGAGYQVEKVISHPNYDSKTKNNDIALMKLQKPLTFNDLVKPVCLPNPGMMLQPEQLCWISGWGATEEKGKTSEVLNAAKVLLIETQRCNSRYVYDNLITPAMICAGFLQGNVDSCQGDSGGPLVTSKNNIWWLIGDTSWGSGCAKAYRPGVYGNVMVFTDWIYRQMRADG

CCC[C@@H]1NC(=O)[C@@H](NC(=O)[C@H](C)NC(=O)CNC(=O)c2ccc(O)cc2)CNC(=O)[C@H](CS(=O)(=O)O)NC(=O)/C=C/c2csc(n2)[C@H](Cc2ccc(O)cc2)NC(=O)C(=O)[C@H]([C@@H](C)CC)NC1=O [CA, CyclotheonellazoleA] ({Benzoyl(4-OH)}-GA[Dap][Nva][X1][X2][Cya]; lactam 3-C)
IC50 (neutrophil elastase (NE)): 0.001 µM | IC50 [1]: 19.2 µM | IC50 [2]: 159 µM
